Test results as given in ChEMBL document CHEMBL4387718, “Design, synthesis of orally bioavailable novel anaplastic lymphoma kinase (ALK) inhibitor diphenylaminopyrimidine analogs and efficacy study on NCI-H2228 xenografts mice model” (Bioorg Med Chem Lett, 2019).
Blank lines part the entries; values can stand above or below the compound they belong to.

Tests used:
[1] = Toxicity in SCID Beige nude mouse xenografted with human NCI-H2228 cells harboring EML4-fused ALK variant assessed as change in body weight at 30 mg/kg, po administered once daily for 14 days and measured twice per week for 14 days during compound dosing; type: organism-based; conditions: in vivo, 336 h
NCI-H2228 [2] = assay: Antitumor activity against human NCI-H2228 cells harboring EML4-fused ALK variant xenografted in SCID Beige nude mouse assessed as tumor growth inhibition at 10 mg/kg, po administered once daily for 14 days measured twice per week for 21 days during compound dosing relative to control; type: functional; conditions: read-out: TGI
NCI-H3122 = assay: Growth inhibition of human NCI-H3122 cells; type: functional, cell-based
[3] = target: ALK tyrosine kinase receptor (Homo sapiens, UniProt Q9UM73); assay: Inhibition of wild-type ALK (unknown origin)
ALK tyrosine kinase receptor (Homo sapiens, UniProt Q9UM73), sequence (Q9UM73 whole entry): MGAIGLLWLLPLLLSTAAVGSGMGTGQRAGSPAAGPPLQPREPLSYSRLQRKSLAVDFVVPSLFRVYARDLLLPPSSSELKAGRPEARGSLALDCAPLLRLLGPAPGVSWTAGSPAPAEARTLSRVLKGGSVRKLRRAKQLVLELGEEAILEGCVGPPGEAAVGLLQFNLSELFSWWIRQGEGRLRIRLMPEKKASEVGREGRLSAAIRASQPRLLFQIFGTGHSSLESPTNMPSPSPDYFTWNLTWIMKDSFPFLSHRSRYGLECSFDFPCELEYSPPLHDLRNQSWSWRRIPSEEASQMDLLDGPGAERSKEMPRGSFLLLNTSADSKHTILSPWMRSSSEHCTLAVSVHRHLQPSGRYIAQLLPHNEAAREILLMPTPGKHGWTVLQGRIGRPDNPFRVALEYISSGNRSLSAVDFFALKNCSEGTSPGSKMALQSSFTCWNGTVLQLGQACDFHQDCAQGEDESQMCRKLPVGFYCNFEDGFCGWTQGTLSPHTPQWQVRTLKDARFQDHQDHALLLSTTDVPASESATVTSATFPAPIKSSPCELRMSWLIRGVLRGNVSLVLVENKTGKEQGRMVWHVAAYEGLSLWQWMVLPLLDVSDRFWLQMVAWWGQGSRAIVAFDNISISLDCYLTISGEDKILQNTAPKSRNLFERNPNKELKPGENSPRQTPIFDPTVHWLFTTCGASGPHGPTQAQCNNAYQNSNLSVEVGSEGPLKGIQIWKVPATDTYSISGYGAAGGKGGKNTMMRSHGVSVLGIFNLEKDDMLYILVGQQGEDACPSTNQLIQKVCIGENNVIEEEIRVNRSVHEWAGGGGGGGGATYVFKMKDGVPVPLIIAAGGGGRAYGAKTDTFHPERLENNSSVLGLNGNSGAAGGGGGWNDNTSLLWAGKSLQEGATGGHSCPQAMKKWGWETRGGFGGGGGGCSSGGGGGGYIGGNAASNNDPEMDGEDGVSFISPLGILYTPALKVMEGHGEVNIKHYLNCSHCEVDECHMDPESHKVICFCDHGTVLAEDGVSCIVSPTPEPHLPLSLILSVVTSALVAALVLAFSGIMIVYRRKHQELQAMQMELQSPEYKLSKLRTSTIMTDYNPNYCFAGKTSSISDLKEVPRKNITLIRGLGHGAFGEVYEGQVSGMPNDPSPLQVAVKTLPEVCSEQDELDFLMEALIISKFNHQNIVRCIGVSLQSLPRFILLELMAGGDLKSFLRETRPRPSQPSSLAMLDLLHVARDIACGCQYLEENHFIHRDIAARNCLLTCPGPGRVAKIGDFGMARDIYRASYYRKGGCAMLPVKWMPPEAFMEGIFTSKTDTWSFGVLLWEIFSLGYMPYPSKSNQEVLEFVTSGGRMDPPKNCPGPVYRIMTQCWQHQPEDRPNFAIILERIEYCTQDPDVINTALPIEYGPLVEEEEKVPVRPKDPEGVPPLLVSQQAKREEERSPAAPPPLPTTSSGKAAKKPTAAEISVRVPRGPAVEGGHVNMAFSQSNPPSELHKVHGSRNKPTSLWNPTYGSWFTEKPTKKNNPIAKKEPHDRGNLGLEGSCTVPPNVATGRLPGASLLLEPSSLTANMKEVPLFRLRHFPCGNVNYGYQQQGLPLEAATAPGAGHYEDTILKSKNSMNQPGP

[4] = target: ALK tyrosine kinase receptor (Homo sapiens, UniProt Q9UM73, F1174L); assay: Inhibition of ALK F1174L mutant (unknown origin)
ALK tyrosine kinase receptor (Homo sapiens, UniProt Q9UM73, F1174L), sequence (Q9UM73 19-1620 F1174L limits assumed): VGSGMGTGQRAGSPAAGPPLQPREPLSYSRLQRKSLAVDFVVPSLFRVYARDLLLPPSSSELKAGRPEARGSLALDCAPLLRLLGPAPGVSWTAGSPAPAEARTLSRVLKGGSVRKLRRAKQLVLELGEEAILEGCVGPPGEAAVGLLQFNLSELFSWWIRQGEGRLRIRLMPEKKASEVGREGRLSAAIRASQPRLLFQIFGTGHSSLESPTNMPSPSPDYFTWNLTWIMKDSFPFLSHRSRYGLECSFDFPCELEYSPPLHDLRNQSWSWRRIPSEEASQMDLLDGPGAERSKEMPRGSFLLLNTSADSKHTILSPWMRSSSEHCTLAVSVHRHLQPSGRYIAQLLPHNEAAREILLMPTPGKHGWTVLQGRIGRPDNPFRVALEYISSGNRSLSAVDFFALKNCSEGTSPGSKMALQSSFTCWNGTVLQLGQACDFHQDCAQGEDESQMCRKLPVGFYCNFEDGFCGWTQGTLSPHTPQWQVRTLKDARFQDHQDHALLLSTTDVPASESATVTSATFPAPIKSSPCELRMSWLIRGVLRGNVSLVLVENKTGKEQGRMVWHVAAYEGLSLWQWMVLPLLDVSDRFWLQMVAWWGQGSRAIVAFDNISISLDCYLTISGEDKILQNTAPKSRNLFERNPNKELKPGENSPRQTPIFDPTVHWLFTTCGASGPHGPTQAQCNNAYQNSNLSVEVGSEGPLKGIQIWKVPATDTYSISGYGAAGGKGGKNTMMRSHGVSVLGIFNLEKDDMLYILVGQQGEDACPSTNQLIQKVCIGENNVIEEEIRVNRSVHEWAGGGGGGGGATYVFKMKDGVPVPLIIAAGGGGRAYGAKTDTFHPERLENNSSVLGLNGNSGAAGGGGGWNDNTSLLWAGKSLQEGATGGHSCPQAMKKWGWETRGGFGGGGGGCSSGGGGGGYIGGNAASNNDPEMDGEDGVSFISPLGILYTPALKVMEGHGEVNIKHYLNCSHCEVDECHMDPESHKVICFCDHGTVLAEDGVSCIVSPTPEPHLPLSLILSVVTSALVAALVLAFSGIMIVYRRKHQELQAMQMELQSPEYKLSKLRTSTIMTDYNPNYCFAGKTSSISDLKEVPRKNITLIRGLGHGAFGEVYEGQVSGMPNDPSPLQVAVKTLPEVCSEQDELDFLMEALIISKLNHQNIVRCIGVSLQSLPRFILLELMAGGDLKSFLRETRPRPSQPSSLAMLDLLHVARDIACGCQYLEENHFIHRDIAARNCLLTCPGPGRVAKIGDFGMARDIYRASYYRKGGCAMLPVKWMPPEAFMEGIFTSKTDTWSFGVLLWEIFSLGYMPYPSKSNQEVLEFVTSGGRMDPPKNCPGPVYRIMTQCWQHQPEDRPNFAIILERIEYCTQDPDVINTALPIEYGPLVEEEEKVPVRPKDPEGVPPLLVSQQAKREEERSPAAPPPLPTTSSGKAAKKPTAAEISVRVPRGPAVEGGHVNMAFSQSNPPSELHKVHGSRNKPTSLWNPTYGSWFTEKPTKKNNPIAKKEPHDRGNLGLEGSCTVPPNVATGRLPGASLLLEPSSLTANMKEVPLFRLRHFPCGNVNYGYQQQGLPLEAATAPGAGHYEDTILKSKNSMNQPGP

[5] = AUC (0 to t) in SCID Beige nude mouse xenografted with human NCI-H2228 cells harboring EML4-fused ALK variant at 3 to 30 mg/kg, po administered once daily for 14 days; type: ADME, organism-based; conditions: in vivo, 336 h
NCI-H2228 [6] = assay: Antitumor activity against human NCI-H2228 cells harboring EML4-fused ALK variant xenografted in SCID Beige nude mouse assessed as tumor growth inhibition at 30 mg/kg, po administered once daily for 14 days measured twice per week for 21 days during compound dosing relative to control; type: functional; conditions: read-out: TGI
NCI-H2228 [7] = assay: Growth inhibition of human NCI-H2228 cells; type: functional, cell-based
[8] = Oral bioavailability in SCID Beige nude mouse xenografted with human NCI-H2228 cells harboring EML4-fused ALK variant at 3 to 30 mg/kg administered once daily for 14 days relative to control; type: ADME, organism-based; conditions: in vivo
[9] = target: ALK tyrosine kinase receptor (Homo sapiens, UniProt Q9UM73, L1196M); assay: Inhibition of ALK L1196M mutant (unknown origin)
ALK tyrosine kinase receptor (Homo sapiens, UniProt Q9UM73, L1196M), sequence (Q9UM73 19-1620 L1196M limits assumed): as the sequence (Q9UM73 19-1620 F1174L limits assumed) above, with L1156F, L1178M counted along it

[10] = Cmax in SCID Beige nude mouse xenografted with human NCI-H2228 cells harboring EML4-fused ALK variant at 3 to 30 mg/kg, po administered once daily for 14 days; type: ADME, organism-based; conditions: in vivo
[11] = Tmax in SCID Beige nude mouse xenografted with human NCI-H2228 cells harboring EML4-fused ALK variant at 3 to 30 mg/kg, po administered once daily for 14 days; type: ADME, organism-based; conditions: in vivo
NCI-H2228 [12] = assay: Antitumor activity against human NCI-H2228 cells harboring EML4-fused ALK variant xenografted in po dosed SCID Beige nude mouse assessed as tumor growth inhibition administered once daily for 14 days measured twice a week for 21 days during compound dosing; type: functional, organism-based; conditions: tested as the 2H-labelled form

- IC50 (NCI-H3122): 4 nM
- IC50 [3]: 71 nM
- IC50 [4]: 36.8 nM
- AUCt [5]: 6980 ng·h/mL
- IC50 (NCI-H2228 [7]): 41.3 nM
- bioavailability [8]: 60%
- IC50 [9]: 18.7 nM
- Cmax [10]: 508 ng/mL
- Tmax [11]: 6 to 8 h
Structure (SMILES): [2H]C([2H])([2H])Oc1cc(C2CCNCC2)c(C)cc1Nc1ncc(Cl)c(Nc2ccccc2S(=O)(=O)C(C)C)n1
- Activity [1]: Non-Toxic
- inhibition in vivo at 10 mg/kg (NCI-H2228 [2]): 53%
- inhibition in vivo at 30 mg/kg (NCI-H2228 [6]): 77%

- IC50 (NCI-H3122): 24.7 nM
- IC50 (NCI-H2228 [7]): 98.5 nM
Structure (SMILES): [2H]c1c(C)c(C2CCNCC2)cc(OC(C)C)c1Nc1ncc(Cl)c(Nc2ccccc2S(=O)(=O)C(C)C)n1

- IC50 (NCI-H3122): 6 nM
- IC50 [3]: 106 nM
- IC50 [4]: 51.6 nM
- IC50 (NCI-H2228 [7]): 45.5 nM
- IC50 [9]: 37 nM
Structure (SMILES): [2H]C([2H])([2H])C([2H])([2H])Oc1cc(C2CCNCC2)c(C)cc1Nc1ncc(Cl)c(Nc2ccccc2S(=O)(=O)C(C)C)n1

- IC50 (NCI-H3122): 28.4 nM
- IC50 (NCI-H2228 [7]): 111 nM
Structure (SMILES): [2H]C([2H])([2H])C([2H])(Oc1cc(C2CCNCC2)c(C)cc1Nc1ncc(Cl)c(Nc2ccccc2S(=O)(=O)C(C)C)n1)C([2H])([2H])[2H]

- IC50 (NCI-H3122): 28.5 nM
- IC50 (NCI-H2228 [7]): 97 nM
Structure (SMILES): [2H]c1ccc(Nc2nc(Nc3cc(C)c(C4CCNCC4)cc3OC(C)C)ncc2Cl)c(S(=O)(=O)C(C)C)c1

- IC50 (NCI-H3122): 27.2 nM
- IC50 (NCI-H2228 [7]): 97 nM
Structure (SMILES): Cc1cc(Nc2ncc(Cl)c(Nc3ccccc3S(=O)(=O)C(C)C)n2)c(OC(C)C)cc1C1CCNCC1 [CERITINIB]
- inhibition in vivo at 10 mg/kg (NCI-H2228 [2]): 26%

Structure (SMILES): COc1cc(C2CCNCC2)c(C)cc1Nc1ncc(Cl)c(Nc2ccccc2S(=O)(=O)C(C)C)n1
- TGI (NCI-H2228 [12]): Dose-dependent effect
